Assay results from US20240398844A1, “PHENYLCOUMARINS FOR TREATING INFLAMMATION” (Ohio State Innovation Foundation, priority 2021, published 2024).

Assays:
[1] = system: PEPCK; experiment: Diabetic zebrafish Western blot, PEPCK expression; type: in vivo; conditions: 10 μM, FIG. 8
Description: (§1) Alloxan-induced diabetic zebrafish were treated with compounds for immunoblot to validate the newly developed animal model, determine the antidiabetic potential of natural product leads, evaluate glucose metabolism, and discover possible mechanisms of action.
(§2) At 72 hpf, naturally dechorionated zebrafish were sorted into a 24-well microplate with 10 fish per well. Type 2 diabetes was induced with the diabetogenic agent alloxan at a dose of 0.5 mg/mL in system water for 3 hours. The incubation solution was changed to 0.01% DMSO in system water with compounds at concentrations of 20 μg/mL or 10 PM, respectively. After 3 hours of treatment with natural product samples, 10 mg/mL D-glucose was administered in system water for 30 minutes, followed by 1 hour in fresh system water to metabolize the glucose and natural product leads. Upon completion of the 4-phase treatment cycle, zebrafish treatment groups were snap frozen into individual microcentrifuge tubes on dry ice, stored overnight at −80° C., thawed, homogenized with 2 μL PBS per animal, and centrifuged at 4° C. for 1 hour at 17,000 rpm. Protein content of homogenate supernatant was determined using the Pierce BCA Protein Assay kit (Pierce Biotechnology) and bovine serum albumin (BSA) standard curve. Absorbance of protein solutions from zebrafish homogenates and serial dilutions of the BSA standard were measured at 544 nm, using a FLUOstar Optima plate reader (BMG Labtechnologies GmbH, Inc.). Homogenates were analyzed by Western blot. Equal amounts of protein (20 μg) were combined with 4× lithium dodecyl sulphate (LDS) loading buffer (NuPAGE, Life Technologies, Carlsbad, CA, USA), brought to volume (15 μL) with PBS, and heated to 95° C. for 5 minutes. Proteins were resolved using NuPAGE Bis-Tris 4-12% gradient sodium dodecyl sulfate polyacrylamide gel electrophoresis (SDS-PAGE) gels together with SeeBlue Plus2 Pre-Stained Standard Ladder (Life Technologies).
Electrophoresis was performed using NuPAGE MES SDS Running Buffer and XCell SureLock Mini-Cell Electrophoresis System (Life Technologies). Separated proteins were transferred from the gel to a polyvinylidene fluoride (PVDF) membrane using tris buffered saline with Tween-20 (TBST) buffer. The blots were blocked in 3% BSA in TBST and subsequently probed using primary antibodies (1:1000 in 1% BSA in TBST) against each target overnight (Table 1). The secondary, horseradish peroxidase (HRP) conjugated antibodies (1:2000) were obtained from Santa Cruz Biotechnology Inc., (Santa Cruz, CA, USA). Conjugated antibodies were detected using SuperSignal West Femto chemiluminescent substrate from Pierce Biotechnology. […] Band density was quantified for proteins of interest using ImageJ Gel Analysis. […]

[2] = system: NFκB p65; experiment: Diabetic zebrafish Western blot, NFκB expression; type: in vivo; conditions: for NFκB p65 expression (Western blot band density): diabetic zebrafish, 10, 5, and 1 μM (rosiglitazone 10 μM), FIG. 10
Description: as §1
as §2, with “The incubation solution was changed to 0.01% DMSO in system water with compounds at concentrations of 20 μg/mL or 10 PM, respectively.” left out
Electrophoresis was performed using NuPAGE MES SDS Running Buffer and XCell SureLock Mini-Cell Electrophoresis System (Life Technologies). Separated proteins were transferred from the gel to a polyvinylidene fluoride (PVDF) membrane using tris buffered saline with Tween-20 (TBST) buffer. The blots were blocked in 3% BSA in TBST and subsequently probed using primary antibodies (1:1000 in 1% BSA in TBST) against each target overnight (Table 1). The secondary, horseradish peroxidase (HRP) conjugated antibodies (1:2000) were obtained from Santa Cruz Biotechnology Inc., (Santa Cruz, CA, USA). Conjugated antibodies were detected using SuperSignal West Femto chemiluminescent substrate from Pierce Biotechnology. Western blots were visualized, and images captured using a luminometer and LumiAnalyst 3.0 software (Boehringer-Mannheim, Mannheim, Germany). Band density was quantified for proteins of interest using ImageJ Gel Analysis.
In the case of duplicate blots, the band density results were expressed in bar graphs as the mean±standard error of the mean (SEM) of two independent experiments. Due to the labor- and time-intensive aspect of Western blot analysis with multiple target proteins, a maximum of two independent immunoblot experiments were performed per compared sample set. […] Additionally, treatment groups were also evaluated versus the diabetic, untreated control group for significance by Student's f-test and indicated in the bar graphs with p values represented by *p<0.05, **p<0.01, and ***p<0.001. […]

Compound | PEPCK expression versus rosiglitazone [1] | NFκB p65 expression (Western blot band density) [2] | NFκB expression (Western blot) ([2]; diabetic zebrafish, 10 μM, FIG. 5)
COc1cc(O[C@@H]2OCC(O)(CO[C@@H]3OC(CO)[C@@H](O)C(O)C3O)C2O)c2c(-c3ccc(OC(C)C)c(O)c3)cc(=O)oc2c1 (single isomer, unassigned) [Compound 40] | approximately equal efficacy to rosiglitazone | significantly inhibit NFκB expression versus the untreated, diabetic control | –
COc1cc(O[C@@H]2O[C@H](CO[C@@H]3OCC(O)(CO)[C@H]3O)[C@@H](O)[C@H](O)[C@H]2O)c2c(-c3ccc(O)c(O)c3)cc(=O)oc2c1 (stereo partly drawn) [Compound 24, 5-O-[β-D-apiofuranosyl-(1→6)-β-D-glucopyranosyl]-7-methoxy-3′,4′-dihydroxy-4-phenylcoumarin] | greater gluconeogenic effect than rosiglitazone | opposite dose-dependent effect | excellent inhibition of NFκB expression
